{"source": "patent US6156765A", "about": "“Method of treating and preventing vasospasm” (The United States of America as represented by the …, priority 1996, dated 2000)", "key": {"[1]": {"test_system": "right middle cerebral artery (R MCA)", "experiment": "Arteriographic vasospasm of the R MCA in primate model of SAH (autologous clot placement)", "assay_type": "in vivo, cynomologous macaques", "details": "for arteriographic vasospasm: 70 mg/kg/day", "description": "(§1) Eleven (11) cynomologous macaques (8 male and 3 female, weight 3.0-5.9 kg.) were randomly divided into 2 groups. Craniotomy was performed in all animals and autologous clot was placed around the right middle cerebral artery (R MCA) after the arachnoid membrane was removed, as described elsewhere [Pluta et al., J. Neurosurg. 77:740-748 (1992)]. Six animals (3 male and 3 female) received IV infusion of 2,2'-dipyridyl (70 mg/kg/day) continuously for 14 days. Between postoperative days 7 and 10, cerebral arteriography was used to assess the presence and degree of vasospasm using methods previously described [Pluta et al., J. Neurosurg. 77:740-748 (1992)]. The five control animals (all male) received IV infusion of saline in a volume equal to that delivered in the experimental group (10-15 cc/kg/day). Two pilot animals were also used in an initial phase in order to establish an effective experimental dose. One received 44 mg/kg/day of IV 2,2'-dipyridyl, and the other received up to 100 mg/kg/8 hrs of IV 2,2'-dipyridyl.\nEach monkey underwent arteriographic study of the R MCA 3 to 21 days before surgery and 7 to 10 days after clot placement [Pluta et al., J. Neurosurg. 77:740-748 (1992)]. Under general anesthesia (ketamine 10 mg/kg and isoflurane) and sterile conditions, a cutdown of the right femoral artery was performed and a No. 3 French catheter was advanced to the right ICA. Fluoroscopy (C-arm; OEC) and intravenous contrast (2 cc Conray, 60%; Malinkrodt Medical, St. Louis, Mo.), were used to acquire subtraction images of the vessel. A radiopaque ruler was placed in the field to allow standardized measurements.\n(§2) All studies were performed in the standard anteroposterior projection (AP). During the arteriography, the end-tidal CO2 was maintained at 40 mm Hg and core body temperature was maintained at 37 degrees Celsius using a heating pad. Blood pressures were monitored during all procedures.\nPlacement of Subarachnoid Clot and Indwelling Intravenous Catheter\nAs in previous studies [Pluta et al., J. Neurosurg. 77:740-748 (1992)], each animal was anesthetized as follows. Each monkey was given an injection of ketamine (10 mg/kg IM), atropine sulfate (0.05 mg/kg IM), and sodium thiopental (25 mg/kg IV). The animals were intubated and ventilated with isoflurane (0.5%-1.0%) and 100% O2 and paralyzed with pancuronium (0.1 mg/kg). Each animal was hyperventilated to an end-tidal CO2 of 30 to 40 mm Hg.\nEach animal was placed in the supine position for a right frontotemporal craniotomy. Under sterile conditions, the dura was opened and the R MCA was identified in the sylvian fissure. Using the operating microscope, the arachnoid membrane over the R MCA was dissected from the trifurcation to the origin of the vessel at the ICA bifurcation. 8-10 cc of autologous clotted arterial blood obtained by an assistant via a left femoral cutdown was then placed along the length of the exposed vessel. The dura was then closed in a watertight fashion, followed by the muscle and skin layers.\nEach animal was then repositioned for placement of a 6.6 French Broviac catheter in the left femoral vein. […] The distal end of the catheter was passed subcutaneously to the midscapular region and secured. Each monkey was fitted in a jacket containing an infusion pump (Disetronic Medical Systems, Plymouth, Minn.) which delivered 70 mg/kg (60 cc/24 hours) of the 2,2'-dipyridyl solution. Each monkey was sedated daily with ketamine (10 mg/kg IM) to change the delivery pump. […]"}, "[2]": {"experiment": "Serum iron concentration in treated animals", "assay_type": "in vivo, cynomologous macaques", "details": "drug-treated animals, 70 mg/kg/day", "description": "as §1\nPlasma samples were collected on days 0 and 7 of each experiment and were analyzed by Maryland Medical Pathology (Rockville, Md.) for serum iron and percent transferrin saturation. Due to the molecular complexity of iron chelators, direct assays for these drugs are not available. […]"}, "transferrin": {"test_system": "transferrin", "experiment": "Percent transferrin saturation in treated animals", "assay_type": "in vivo, cynomologous macaques", "description": "as §1\nPlasma samples were collected on days 0 and 7 of each experiment and were analyzed by Maryland Medical Pathology (Rockville, Md.) for serum iron and percent transferrin saturation. Due to the molecular complexity of iron chelators, direct assays for these drugs are not available.\nData are reported as means of measurements by three individuals ±SEM and compared using an unpaired […] test. Significance was accepted at p<0.05."}, "[3]": {"experiment": "Clinical observations for signs of drug toxicity", "assay_type": "in vivo, cynomologous macaques", "description": "as §1\nThe monkeys were observed daily for changes in weight, feeding, behavior, alertness, and neurologic function. The monkeys also were observed closely for signs of drug toxicity, including tremors, emesis, vomiting, diarrhea, seizures, and CNS depression [Sigma MSDS, CAS #366-18-7, 1994].\nPilot studies were done to determine the experimental dosage. […] The second pilot animal received up to 100 mg/kg/8 hours. […] These two pilot animals were then excluded from further data analysis."}, "[4]": {"test_system": "liver, kidney, brain and other tissues", "experiment": "Gross and microscopic anatomic pathology", "assay_type": "in vivo, cynomologous macaques", "design": "key to Toxicity Liver: L+: swelling of hepatocytes; L++: degeneration; L+++: lipidosis (#73, #105), regeneration (885N)", "details": "IV 70 mg/kg/day for 14 days", "description": "as §1\nTissues were studied for gross and microscopic anatomic pathology by Dr. Michael Eckhaus and staff (Veterinary Resources Program, National Center for Research Resources, NIH, Bethesda, Md.)."}, "[5]": {"experiment": "Blood pressure monitoring", "assay_type": "in vivo, cynomologous macaques", "details": "all animals except pilot animal receiving 100 mg/kg/8 hours; 14-day treatment", "description": "as §1, §2"}, "[6]": {"details": "background statement; cited from earlier work"}, "[7]": {"details": "Afshar et al. 1995; cited from earlier work"}, "[8]": {"details": "NO versus oxygen; cited from earlier work"}, "[9]": {"details": "ferric iron; cited from earlier work"}, "[10]": {"details": "ferrous iron; cited from earlier work"}, "[11]": {"details": "Peters et al. 1966; Oubidar et al. 1994; cited from earlier work"}, "[12]": {"details": "Harada et al. 1992; Vollmer et al. 1991; cited from earlier work"}, "[13]": {"details": "pilot animal, IV 44 mg/kg/24 hours for 14 days"}}, "note": "Where “and” joins values, the source holds several entries; their conditions need not be identical. Equal entries are not always repeated.", "data": [{"compound": "c1ccc(-c2ccccn2)nc1", "note": "[2,2'-dipyridyl]", "values": [{"measurement": "arteriographic vasospasm", "setting": "[1]; IV 70 mg/kg/day for 14 days, n=6, postoperative day 7-10", "value": "no arteriographic vasospasm"}, {"measurement": "arteriographic vasospasm", "setting": "[1]; IV 70 mg/kg/day for 14 days, n=6, postoperative day 7-10, listed as DP", "value": "no spasm"}, {"measurement": "mean AP area of the proximal portion of the MCA, of the baseline area", "setting": "[1]; IV 70 mg/kg/day for 14 days, n=6, postoperative day 7-10, mean ± SEM, p<0.0001, control 44.8%±4.6%", "value": "3.9%±4.3"}, {"measurement": "vasospasm (reduction of AP area of R MCA)", "setting": "[1]; [13]", "value": 20, "unit": "%"}, {"measurement": "vasospasm grade", "setting": "[1]; [13]", "value": "mild (reduction in the AP area of the defined segment of the MCA of 12-25%)"}, {"measurement": "serum iron, day 7 as compared to day 0", "setting": "[2]", "value": "markedly reduced"}, {"measurement": "percent saturation of transferrin, change in treated animals", "setting": "transferrin; 70 mg/kg/day", "value": "decreased"}, {"measurement": "TransFe sat % Day 0", "setting": "transferrin; individual monkey, day 0, IV 70 mg/kg/day, 70 mg/kg/day", "value": "40% and 32% and 31% and 33%"}, {"measurement": "TransFe sat % Day 7", "setting": "transferrin; individual monkey, day 7, IV 70 mg/kg/day, 70 mg/kg/day", "value": "2% and 0% and -1% and -2% and -4%"}, {"measurement": "TransFe sat % Day 0, Mean", "setting": "transferrin; mean of table, day 0, IV 70 mg/kg/day", "value": "34 ± 4", "unit": "%"}, {"measurement": "TransFe sat % Day 7, Mean", "setting": "transferrin; mean of table, day 7, p < 0.0001, IV 70 mg/kg/day", "value": "-1.2 ± 2", "unit": "%"}, {"measurement": "toxicity at the effective dose", "setting": "[3]; 70 mg/kg/day", "value": "mild"}, {"measurement": "resolution of tremors and leg weakness, animal #1", "setting": "[3]; IV 70 mg/kg/day", "value": "≤ 4", "unit": "days"}, {"measurement": "resolution of tremors and leg weakness, animal #2", "setting": "[3]; IV 70 mg/kg/day", "value": "did not resolve in animal #2 by day 14"}, {"measurement": "resolution of tremors and leg weakness, animal #4", "setting": "[3]; IV 70 mg/kg/day", "value": "≤ 6", "unit": "days"}, {"measurement": "toxic symptoms", "setting": "[3]; animals #1, #2, and #4, IV 70 mg/kg/day for 14 days", "value": "mild tremors of the upper and lower extremities, and leg weakness"}, {"measurement": "toxic symptoms", "setting": "[3]; animals #3, #5, and #6, IV 70 mg/kg/day for 14 days", "value": "no toxic symptoms"}, {"measurement": "weight loss, changes in feeding habits, or alertness", "setting": "[3]; control or treated animals, IV 70 mg/kg/day for 14 days", "value": "None"}, {"measurement": "signs of toxicity", "setting": "[3]; [13]", "value": "no sign of toxicity"}, {"measurement": "symptoms of toxicity", "setting": "[3]; pilot animal, IV up to 100 mg/kg/8 hours, sacrificed on fourth day of drug delivery", "value": "symptoms of toxicity (tremors, emesis, and diarrhea)"}, {"measurement": "brain changes (substantia nigra, cerebellum Purkinje cells)", "setting": "[4]", "value": "No brain changes"}, {"measurement": "gross pathology: brain, liver, kidney, lymph nodes, spleen, intestine, gonads, or skeletal or cardiac muscle", "setting": "[4]", "value": "no toxicity"}, {"measurement": "kidney pathology (collecting tubules), animals #2 and #5", "setting": "[4]", "value": "Multifocal casts"}, {"measurement": "kidney pathology, animals #1, #3, #4, or #6", "setting": "[4]", "value": "No sign of nephrotoxicity"}, {"measurement": "liver pathology, animals #1, #3, #4, and #5", "setting": "[4]", "value": "Hepato-cellular swelling"}, {"measurement": "liver pathology, animals #2 and #6", "setting": "[4]", "value": "Hepatocellular degeneration"}, {"measurement": "liver pathology, overall", "setting": "[4]", "value": "Mild changes"}, {"measurement": "microscopic pathology: brain (substantia nigra and cerebellar Purkinje cells), lymph nodes, spleen, intestine, gonads, or skeletal or cardiac muscle", "setting": "[4]", "value": "no toxicity"}, {"measurement": "Toxicity Liver", "setting": "[4]; individual monkey, 70 mg/kg/day", "value": "L+ and L++"}, {"measurement": "blood pressures during preoperative and postoperative arteriography", "setting": "[5]", "value": "stable and equivalent blood pressures"}]}, {"compound": "oxyhemoglobin: the clinically-relevant vasospastic agent", "values": [{"measurement": "vasospastic activity", "setting": "[6]", "value": "vasospastic"}]}, {"compound": "nitric oxide [NO]", "values": [{"measurement": "effect of intracarotid infusion on vasospasm", "setting": "[7]", "value": "reversal of vasospasm"}]}, {"compound": "Hemoglobin: Hemoglobin has a strong affinity for NO", "values": [{"measurement": "binding to NO more readily than to oxygen", "setting": "[8]", "value": "1,500 fold"}]}, {"compound": "CC(=O)N(O)CCCCCNC(=O)CCC(=O)N(O)CCCCCNC(=O)CCC(=O)N(O)CCCCCN", "note": "[deferoxamine]", "values": [{"measurement": "deferoxamine-iron stability constant for Fe^+3", "setting": "[9]", "value": "10^31"}, {"measurement": "deferoxamine-iron stability constant for Fe^+2", "setting": "[10]", "value": "10^2 to 10^14"}, {"measurement": "CSF levels before toxic systemic effects appear", "setting": "[11]", "value": "adequate CSF levels cannot be achieved before toxic systemic effects appear"}, {"measurement": "penetrability of the blood-brain barrier", "setting": "[11]", "value": "limited penetrability"}, {"measurement": "success in potential therapies for vasospasm", "setting": "[12]", "value": "limited success"}]}]}
